# Legend:
# [1] = Bioavailability in CD-1 mouse plasma at 40 mg/kg, ip by HPLC-MS/MS analysis; assay type: ADME, organism-based
# [2] = Dissociation constant, pKa of compound; assay type: physicochemical
# [3] = Half life in CD-1 mouse at 1 mg/kg, iv by HPLC-MS/MS analysis; assay type: ADME, organism-based; conditions: in vivo
# [4] = AUC(0 to t) in CD-1 mouse at 1 mg/kg, iv by HPLC-MS/MS analysis; assay type: ADME, organism-based; design: dose 1 mg/kg; conditions: in vivo
# [5] = Volume of distribution at steady state in CD-1 mouse at 1 mg/kg, iv by HPLC-MS/MS analysis; assay type: ADME, organism-based; conditions: in vivo, read-out: Vdss
# [6] = Cmax in CD-1 mouse at 40 mg/kg, ip by HPLC-MS/MS analysis; assay type: ADME, organism-based; design: route intraperitoneal, dose 40 mg/kg; conditions: in vivo
# [7] = AUC(0 to t) in CD-1 mouse at 40 mg/kg, ip by HPLC-MS/MS analysis; assay type: ADME, organism-based; design: dose 40 mg/kg; conditions: in vivo
# [8] = Apparent permeability across apical to basolateral side in human Caco-2 cells; assay type: ADME, cell-based
# [9] = Clearance in CD-1 mouse at 1 mg/kg, iv by HPLC-MS/MS analysis; assay type: ADME, organism-based; conditions: in vivo
# [10] = Lipophilicity, logP of compound; assay type: physicochemical; conditions: octanol/water
# [11] = Tmax in CD-1 mouse at 40 mg/kg, ip by HPLC-MS/MS analysis; assay type: ADME, organism-based; conditions: in vivo
# [12] = Oral bioavailability in CD-1 mouse plasma at 10 mg/kg by HPLC-MS/MS analysis; assay type: ADME, organism-based
# [13] = AUC in CD-1 mouse at 40 mg/kg, ip by HPLC-MS/MS analysis; assay type: ADME, organism-based; design: dose 40 mg/kg; conditions: in vivo
# [14] = Half life in CD-1 mouse at 40 mg/kg, ip by HPLC-MS/MS analysis; assay type: ADME, organism-based; conditions: in vivo
# [15] = Distribution coefficient, logD of compound; assay type: physicochemical; conditions: octanol/water
# [16] = Tmax in CD-1 mouse at 10 mg/kg, po by HPLC-MS/MS analysis; assay type: ADME, organism-based; conditions: in vivo
# [17] = Cmax in CD-1 mouse at 10 mg/kg, po by HPLC-MS/MS analysis; assay type: ADME, organism-based; design: route oral, dose 10 mg/kg; conditions: in vivo
# [18] = AUC in CD-1 mouse at 1 mg/kg, iv by HPLC-MS/MS analysis; assay type: ADME, organism-based; design: dose 1 mg/kg; conditions: in vivo
# [19] = AUC in Wistar rat brain at 40 mg/kg, ip; assay type: ADME, organism-based; design: dose 40 mg/kg
# [20] = AUC in Wistar rat plasma at 40 mg/kg, ip; assay type: ADME, organism-based; design: dose 40 mg/kg
# [21] = AUC(0 to t) in CD-1 mouse at 10 mg/kg, po by HPLC-MS/MS analysis; assay type: ADME, organism-based; design: dose 10 mg/kg; conditions: in vivo
compound,measurement,setting,value
CCC(=O)N(CC1(N2CCN(CC(C)C)CC2)CCOCC1)c1cccc(C(F)(F)F)n1,bioavailability,[1],> 100%
same,pKa,[2],8.9
same,half-life,[3],24 min
same,AUC(0-t),[4],92 ng·h/mL
same,Vd,[5],2.9 L/kg
same,Cmax,[6],11300 ng/mL
same,AUC(0-t),[7],5950 ng·h/mL
same,Papp A→B,[8],16.9 ×10⁻⁶ cm/s
same,clearance,[9],180 mL/min/kg
same,logP,[10],3.7
same,Tmax,[11],4.8 min
same,bioavailability,[12],13%
same,AUC,[13],5960 ng·h/mL
same,half-life,[14],36 min
same,logD,[15],2.2
same,Tmax,[16],30 min
same,Cmax,[17],130 ng/mL
same,AUC,[18],93 ng·h/mL
same,AUC,[19],2430 ng·h/mL
same,AUC,[20],2810 ng·h/mL
same,AUC(0-t),[21],122 ng·h/mL
